The results in this text go back to patent US11311538B2, “Compositions and methods for targeting cancers” (YALE UNIVERSITY, priority 2018, dated 2022).

One assay concerns HEK293FT and YUNK1 cells. Kind of assay: Clonogenic survival assay, PARP inhibitors, knockdown or metabolite-treated cells. The format is cell-based, human. The settings on record: knockdown of SDHB and FH or exogenous dimethyl-fumarate or succinate (FIGS. 4A-4B, 8E-8I).
In the next assay the test system is UOK 262. As to the kind of experiment: Clonogenic survival assay in cell lines of renal origin. Format: cell-based, human. The settings on record: FIG. 4C (BMN-673), FIG. 8J (mitomycin C).
In assay [1] the test system is shSDHB-expressing HEK293FT tumor xenografts. As to the kind of experiment: Tumor growth delay assay, shSDHB HEK293FT xenografts. Format: in vivo, mouse. The source says:
In vivo efficacy studies: HEK293FT xenografts. Female athymic nu/nu mice (Hsd:Athymic Nude-Foxnlnu, Envigo) were used for all in vivo xenograft studies. Mice were quarantined for at least 1 week before experimental manipulation. Tumors were formed using shRNA-expressing versions of the tumorigenic human embryonic kidney cell-derived line, HEK293FT. HEK293FT is a subline of HEK293 cells that has been transformed by expression of SV40 Large T-antigen. […], or shCTRL (non-targeted control) expressing HEK293FT cells were implanted subcutaneously (5×10^6 cells in 0.1 cc PBS) in the right flank of nude mice. Two efficacy studies were conducted. In one, mice were randomized into treatment and non-treated groups (10 mice/group) at day 3, with treatment initiation 4 days post implant. In a second independent in vivo efficacy study, mice were injected as above with 10 mice per group, and treatment was started only once the tumor volumes reached […]. For both studies, mice were visually observed daily and tumors were measured three times per week by calipers to determine tumor volume using the formula: Volume=L×W×W×0.532. Mice were fed with a grain based rodent diet containing Doxycycline at 200 mg/kg (Bioserv, Catalog #S3888). BMN-673 was solubilized in DMSO and diluted with PBS containing 10% dimethylacetamide (Sigma-Aldrich) and 6% Solutol (Sigma). BMN-673 (0.5 mg/kg, 0.2 cc), or vehicle (0.2 cc) was administered by oral gavage once daily for the duration of the experiment. Mean (geometric) tumor volume (mm^3) was plotted over time to monitor tumor growth. P-values were determined by ANOVA with repeated measures. In vivo efficacy studies: UOK 262 xenografts. Female athymic nu/nu mice (Hsd:Athymic Nude-Foxnlnu, Envigo) were used for all in vivo xenograft studies. Mice were quarantined for at least 1 week before experimental manipulation. UOK 262 cells were implanted subcutaneously using 5×10^6 cells in 0.1 cc PBS mixed with 0.1 cc of Corning Matrigel Matrix (Cat. No. 354234) per animal. Mice were randomized at day 3 day into two groups (n=10/group). […]

Assay [2] concerns shCTRL-expressing HEK293FT tumor xenografts. Kind of assay: Tumor growth delay assay, shCTRL HEK293FT xenografts. The format is in vivo, mouse. The source says:
In vivo efficacy studies: HEK293FT xenografts. Female athymic nu/nu mice (Hsd:Athymic Nude-Foxnlnu, Envigo) were used for all in vivo xenograft studies. Mice were quarantined for at least 1 week before experimental manipulation. Tumors were formed using shRNA-expressing versions of the tumorigenic human embryonic kidney cell-derived line, HEK293FT. HEK293FT is a subline of HEK293 cells that has been transformed by expression of SV40 Large T-antigen. […], or shCTRL (non-targeted control) expressing HEK293FT cells were implanted subcutaneously (5×10^6 cells in 0.1 cc PBS) in the right flank of nude mice. Two efficacy studies were conducted. In one, mice were randomized into treatment and non-treated groups (10 mice/group) at day 3, with treatment initiation 4 days post implant. In a second independent in vivo efficacy study, mice were injected as above with 10 mice per group, and treatment was started only once the tumor volumes reached […]. For both studies, mice were visually observed daily and tumors were measured three times per week by calipers to determine tumor volume using the formula: Volume=L×W×W×0.532. Mice were fed with a grain based rodent diet containing Doxycycline at 200 mg/kg (Bioserv, Catalog #S3888). […] P-values were determined by ANOVA with repeated measures. […]

Another assay relates to poly-ADP-ribose (PAR). Kind of assay: Poly-ADP-Ribose ELISA in xenograft tumors. Format: in vivo, mouse. The settings on record: 24 h post single dose (FIG. 4K). The method, then: Tumors developed with mice on a rodent diet including doxycycline just as in the in vivo efficacy studies. Once tumors were at 80 mm^3 mice were gavaged with BMN-673 at 1 or 10 mg/kg or vehicle. Tumors were collected 24 hours later for and frozen at −80° C. The concentrations of BMN-673 in tumor samples were determined using liquid chromatography with tandem mass spectrometry (LC-MS/MS). In brief, an aliquot (30 μL) tumor homogenate was protein precipitated with volumes of methanol, and 5 μL of supernatant was injected into the LC-MS/MS system. LC-MS/MS analyses were performed on a Waters LC-MS/MS system consisting a Waters AQUITY UPLC system coupled with a TQ-XS triple quadrupole mass spectrometer (Milford, Mass., USA). […] BMN673 was monitored using the positive electrospray ionization mode at the most sensitive and specific mass transition, m/z 381.0>228.8. The linear calibration curve was established at BMN673 concentration range of 5-5000 nM in mouse serum. The precision and accuracy of quality control samples were within generally acceptable criteria for bioanalytical methods. Poly-ADP-Ribose ELISA. Poly-ADP-Ribose ELISA was performed per manufacturer's protocol using the PARP in vivo Pharmacodynamic Assay II Kit (Trevigen). 2 μg of protein input was used per replicate and luminescence reading were converted to pg PAR/μg protein using a standard curve. Statistics and Reproducibility. […]
A general note: ELISA stands for enzyme-linked immunosorbent assay.

On to `Cn1ncnc1[C@H]1c2n[nH]c(=O)c3cc(F)cc(c23)N[C@@H]1c1ccc(F)cc1` [BMN-673, BMN-673 (Talazoparib)], for which the “sensitivity to the PARP inhibitor, clonogenic survival” value with HEK293FT and YUNK1 cells is on record as “dramatic sensitivity”. The “sensitivity of UOK 262 relative to FH-proficient cell lines of renal origin, clonogenic survival” value in the assay with UOK 262 was “markedly more sensitive”. Moreover, the “tumor growth vs vehicle, SDH-deficient tumors” value in assay [1] (treatment after tumors reached 95-150 mm^3, 0.5 mg/kg oral gavage once daily (FIG. 4G)) is “inhibited the growth”. Also, in assay [1] (treatment beginning four days after implantation, 0.5 mg/kg oral gavage once daily (FIG. 4D)), the “tumor growth vs vehicle, shSDHB tumors” value is “robust suppression of tumor growth”. Besides, the “growth of SDHB-deficient tumors” value in assay [1] (two separate sets of in vivo efficacy studies, 0.5 mg/kg oral gavage once daily) was “significantly inhibited the growth”. Besides, the “tumor growth vs vehicle, shCTRL tumors” value in assay [2] (treatment after tumors reached 95-150 mm^3, 0.5 mg/kg oral gavage once daily (FIG. 4I)) was “no growth inhibition”; in assay [2] (treatment beginning four days after implantation, 0.5 mg/kg oral gavage once daily (FIG. 4F)), “no effect”. In addition, the “PAR levels by ELISA, SDHB knockdown vs shCTRL tumors” value in the assay with poly-ADP-ribose (PAR) is given as “reduced to the same extent”.
